Activity calls are given as the source filed them. The rule behind the calls is not given here.
What was measured:
[1] = system: Mus musculus; assay: In vivo inhibition of STAT3 phosphorylation in BALB/c nude mouse tumor xenografted with human MV4-11 cells at 60 mg/kg, po qd for 3 weeks and measured 8 to 24 hrs post last dose; type: functional, organism-based; settings: time 22.0 day
[2] = AUC(0 to 24 hrs) in mouse at 5 mg/kg, po measured upto 24 hrs by LC-MS/MS analysis; type: ADME, organism-based; settings: in vivo
[3] = Cmax in rat at 5 mg/kg, po measured upto 24 hrs by LC-MS/MS analysis; type: ADME, organism-based; settings: in vivo
[4] = Selectivity ratio of IC50 for CDK5/p25NCK (unknown origin) to IC50 for CDK8/Cyclin C (unknown origin)
[5] = Dose normalized AUC in dog at 3 mg/kg, po measured upto 24 hrs by LC-MS/MS analysis; type: ADME, organism-based, Canis lupus familiaris; settings: in vivo
[6] = Selectivity ratio of IC50 for CDK2/CyclinA2 (unknown origin) to IC50 for CDK8/Cyclin C (unknown origin)
[7] = target: CDK4/Cyclin D3 (Homo sapiens) (UniProt P11802+P30281); assay: Inhibition of CDK4/cyclinD3 (unknown origin) at 1 uM by luminescence based assay relative to control; type: protein-complex assay
[8] = target: Cyclin-dependent kinase 2/cyclin E1 (Homo sapiens) (UniProt P24864+P24941); assay: Inhibition of CDK2/Cyclin E1 (unknown origin) at 1 uM by luminescence based assay relative to control; type: protein-complex assay
[9] = Cmax in rat at 10 mg/kg, po measured upto 24 hrs by LC-MS/MS analysis; type: ADME, organism-based; settings: in vivo
[10] = system: MDA-MB-468; assay: Antitumor activity against human MDA-MB-468 cells xenografted in BALB/c nude mouse assessed as tumor growth inhibition at 3 mg/kg, po qd and measured twice a week for 3 weeks; type: functional, organism-based
[11] = Tmax in rat at 10 mg/kg, po measured upto 24 hrs by LC-MS/MS analysis; type: ADME, organism-based; settings: in vivo
[12] = target: CDK18/Cyclin Y (Homo sapiens) (UniProt Q07002+Q8ND76); assay: Inhibition of CDK18/cyclinY (unknown origin) at 1 uM by luminescence based assay relative to control; type: protein-complex assay
[13] = Volume of distribution at steady state in monkey at 1 mg/kg, iv measured upto 24 hrs by LC-MS/MS anlaysis; type: ADME, organism-based, Macaca mulatta; settings: rhesus monkey, in vivo, read-out: Vdss
[14] = system: MDA-MB-231; assay: Inhibition of cell growth in human MDA-MB-231 cells; type: functional, cell-based
[15] = target: CDK6/cyclin D3 (Homo sapiens) (UniProt P30281+Q00534); assay: Inhibition of CDK6/cyclinD3 (unknown origin) at 1 uM by luminescence based assay relative to control; type: protein-complex assay
[16] = system: Z-138; assay: Synergistic antitumor activity against human Z138 cells xenografted in CB17 SCID mouse assessed as tumor growth inhibition at 2.5 to 5 mg/kg, po administered once daily for 21 days in presence of rituximab; type: functional; settings: dose 2.5-5 mg/kg, time 21 day
[17] = target: CDK1/Cyclin E (Homo sapiens) (UniProt P06493+P24864); assay: Inhibition of CDK1/cyclinE1 (unknown origin) at 1 uM by luminescence based assay relative to control; type: protein-complex assay
[18] = Dose normalized AUC in monkey at 5 mg/kg, po measured upto 24 hrs by LC-MS/MS analysis; type: ADME, organism-based, Macaca mulatta; settings: rhesus monkey, in vivo
[19] = Toxicity in BALB/c nude mouse assessed as changes in body weight at 3 to 10 mg/kg, po qd measured twice a week for 3 weeks; type: organism-based; settings: in vivo, 504 h, dose 3-10 mg/kg
[20] = Tmax in dog at 5 mg/kg, po measured upto 24 hrs by LC-MS/MS analysis; type: ADME, organism-based, Canis lupus familiaris; settings: in vivo
[21] = Tmax in monkey at 5 mg/kg, po measured upto 24 hrs by LC-MS/MS analysis; type: ADME, organism-based, Macaca mulatta; settings: rhesus monkey, in vivo
[22] = organism: Homo sapiens; assay: Inhibition of CDK1/CyclinA2 (unknown origin) at 1 uM by luminescence based assay relative to control
[23] = Oral bioavailability in rat at 10 mg/kg measured upto 24 hrs by LC-MS/MS analysis; type: ADME, organism-based; settings: in vivo
[24] = Toxicity in CB17 SCID mouse xenografted with human Z138 cells assessed as change in body weight at 2.5 to 5 mg/kg, po qd for 3 weeks in presence of rituximab; type: organism-based; settings: in vivo, 504 h, dose 2.5-5 mg/kg
[25] = system: MV4-11; assay: Antitumor activity against human MV4-11 cells xenografted in BALB/c nude mouse assessed as tumor growth inhibition at 10 mg/kg, po qd and measured twice a week for 3 weeks; type: functional; settings: MV4-11, 504 h, read-out: TGI
[26] = target: CDK6/cyclin D1 (Homo sapiens) (UniProt P24385+Q00534); assay: Inhibition of CDK6/cyclinD1 (unknown origin) at 1 uM by luminescence based assay relative to control; type: protein-complex assay
[27] = Half-life in monkey at 1 mg/kg, iv measured upto 24 hrs by LC-MS/MS anlaysis; type: ADME, organism-based, Macaca mulatta; settings: rhesus monkey, in vivo
[28] = Dose normalized AUC in mouse at 30 mg/kg, po measured upto 24 hrs by LC-MS/MS analysis; type: ADME, organism-based; settings: in vivo
[29] = Cmax in monkey at 5 mg/kg, po measured upto 24 hrs by LC-MS/MS analysis; type: ADME, organism-based, Macaca mulatta; settings: rhesus monkey, in vivo
[30] = system: MV4-11; assay: Potency index, ratio of RVU120 IC50 to test compound IC50 for antiproliferative activity against human MV4-11 cells; type: functional
[31] = target: Cyclin-dependent kinase 8 (Homo sapiens, UniProt P49336); assay: Inhibition of CDK8 (unknown origin) assessed as residual activity at 500 nM by ADP-Glo assay
[32] = system: Mus musculus; assay: In vivo inhibition of STAT3 phosphorylation in BALB/c nude mouse tumor xenografted with human MV4-11 cells at 10 mg/kg, po qd for 3 weeks and measured 8 to 24 hrs post last dose; type: functional, organism-based; settings: time 22.0 day
[33] = target: Cyclin-dependent kinase 5/CDK5 activator 1 (Homo sapiens) (UniProt Q00535+Q15078); assay: Inhibition of CDK5/p25NCK (unknown origin) at 1 uM by luminescence based assay relative to control; type: protein-complex assay
[34] = Cmax in dog at 5 mg/kg, po measured upto 24 hrs by LC-MS/MS analysis; type: ADME, organism-based, Canis lupus familiaris; settings: in vivo
[35] = target: CDK7/Cyclin H/MNAT1 (Homo sapiens) (UniProt P51946+P50613+P51948); assay: Inhibition of CDK7/cyclinH/MAT1 (unknown origin) at 1 uM by luminescence based assay relative to control; type: protein-complex assay
[36] = target: Cyclin-dependent kinase 13/Cyclin-K (Homo sapiens) (UniProt Q14004+O75909); assay: Inhibition of CDK13/cyclinK (unknown origin) at 1 uM by luminescence based assay relative to control; type: protein-complex assay
[37] = target: CDK2/Cyclin A2 (Homo sapiens) (UniProt P24941+P20248); assay: Inhibition of CDK2/CyclinA2 (unknown origin) at 1 uM by luminescence based assay relative to control; type: protein-complex assay
[38] = Tmax in mouse at 30 mg/kg, po measured upto 24 hrs by LC-MS/MS analysis; type: ADME, organism-based; settings: in vivo
[39] = target: CDK8/Cyclin C (Homo sapiens, UniProt P49336); assay: Displacement of tracer 236 from CDK8/cyclin C (unknown origin) preincubated for 15 mins followed by tracer addition and measured after 60 mins by FRET based lanthascreen assay; type: protein-complex assay
Sequence of CDK8/Cyclin C (P49336 whole entry): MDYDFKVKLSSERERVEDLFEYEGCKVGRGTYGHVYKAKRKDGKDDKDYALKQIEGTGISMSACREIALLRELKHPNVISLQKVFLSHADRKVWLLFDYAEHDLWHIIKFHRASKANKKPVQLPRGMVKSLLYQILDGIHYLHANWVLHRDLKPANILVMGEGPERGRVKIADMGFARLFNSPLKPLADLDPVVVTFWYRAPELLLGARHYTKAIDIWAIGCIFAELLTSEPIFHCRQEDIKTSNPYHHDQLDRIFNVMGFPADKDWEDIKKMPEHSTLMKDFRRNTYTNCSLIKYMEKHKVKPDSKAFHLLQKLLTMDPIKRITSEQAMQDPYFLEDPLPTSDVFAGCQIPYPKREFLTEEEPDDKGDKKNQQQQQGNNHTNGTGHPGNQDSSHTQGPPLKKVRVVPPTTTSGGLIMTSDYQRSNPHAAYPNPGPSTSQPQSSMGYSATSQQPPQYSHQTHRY
Sequence of CDK8/Cyclin C (P24863 whole entry, further chain): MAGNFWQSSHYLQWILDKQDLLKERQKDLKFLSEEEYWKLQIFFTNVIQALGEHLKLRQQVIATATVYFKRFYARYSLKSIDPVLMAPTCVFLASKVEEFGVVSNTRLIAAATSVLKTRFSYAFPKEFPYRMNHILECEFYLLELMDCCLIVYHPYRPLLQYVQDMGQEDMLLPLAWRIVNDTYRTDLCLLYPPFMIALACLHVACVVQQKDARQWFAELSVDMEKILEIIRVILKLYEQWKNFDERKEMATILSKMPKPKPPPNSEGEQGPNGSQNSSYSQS

Sequence of Cyclin-dependent kinase 8 (P49336 whole entry): as the sequence (P49336 whole entry) above
Sequence of Cyclin-dependent kinase 13/Cyclin-K (Homo sapiens) (O75909 whole entry, looked up): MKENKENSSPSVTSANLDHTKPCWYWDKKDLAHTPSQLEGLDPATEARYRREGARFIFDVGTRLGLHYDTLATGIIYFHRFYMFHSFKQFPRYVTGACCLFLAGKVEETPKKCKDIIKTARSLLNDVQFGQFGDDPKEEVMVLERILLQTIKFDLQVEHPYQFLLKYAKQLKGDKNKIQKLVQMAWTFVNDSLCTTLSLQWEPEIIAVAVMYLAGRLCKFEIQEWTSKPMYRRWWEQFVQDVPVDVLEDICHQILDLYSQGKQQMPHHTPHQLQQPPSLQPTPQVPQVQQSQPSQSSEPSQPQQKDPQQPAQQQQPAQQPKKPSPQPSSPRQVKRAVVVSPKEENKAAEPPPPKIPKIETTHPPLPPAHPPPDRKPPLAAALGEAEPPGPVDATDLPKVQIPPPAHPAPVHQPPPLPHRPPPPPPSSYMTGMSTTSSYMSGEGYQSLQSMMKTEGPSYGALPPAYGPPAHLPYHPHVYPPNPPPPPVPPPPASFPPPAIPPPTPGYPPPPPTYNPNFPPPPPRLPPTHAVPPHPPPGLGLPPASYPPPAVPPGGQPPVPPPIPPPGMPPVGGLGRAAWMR
Sequence of Cyclin-dependent kinase 13/Cyclin-K (Homo sapiens) (Q14004 whole entry, looked up): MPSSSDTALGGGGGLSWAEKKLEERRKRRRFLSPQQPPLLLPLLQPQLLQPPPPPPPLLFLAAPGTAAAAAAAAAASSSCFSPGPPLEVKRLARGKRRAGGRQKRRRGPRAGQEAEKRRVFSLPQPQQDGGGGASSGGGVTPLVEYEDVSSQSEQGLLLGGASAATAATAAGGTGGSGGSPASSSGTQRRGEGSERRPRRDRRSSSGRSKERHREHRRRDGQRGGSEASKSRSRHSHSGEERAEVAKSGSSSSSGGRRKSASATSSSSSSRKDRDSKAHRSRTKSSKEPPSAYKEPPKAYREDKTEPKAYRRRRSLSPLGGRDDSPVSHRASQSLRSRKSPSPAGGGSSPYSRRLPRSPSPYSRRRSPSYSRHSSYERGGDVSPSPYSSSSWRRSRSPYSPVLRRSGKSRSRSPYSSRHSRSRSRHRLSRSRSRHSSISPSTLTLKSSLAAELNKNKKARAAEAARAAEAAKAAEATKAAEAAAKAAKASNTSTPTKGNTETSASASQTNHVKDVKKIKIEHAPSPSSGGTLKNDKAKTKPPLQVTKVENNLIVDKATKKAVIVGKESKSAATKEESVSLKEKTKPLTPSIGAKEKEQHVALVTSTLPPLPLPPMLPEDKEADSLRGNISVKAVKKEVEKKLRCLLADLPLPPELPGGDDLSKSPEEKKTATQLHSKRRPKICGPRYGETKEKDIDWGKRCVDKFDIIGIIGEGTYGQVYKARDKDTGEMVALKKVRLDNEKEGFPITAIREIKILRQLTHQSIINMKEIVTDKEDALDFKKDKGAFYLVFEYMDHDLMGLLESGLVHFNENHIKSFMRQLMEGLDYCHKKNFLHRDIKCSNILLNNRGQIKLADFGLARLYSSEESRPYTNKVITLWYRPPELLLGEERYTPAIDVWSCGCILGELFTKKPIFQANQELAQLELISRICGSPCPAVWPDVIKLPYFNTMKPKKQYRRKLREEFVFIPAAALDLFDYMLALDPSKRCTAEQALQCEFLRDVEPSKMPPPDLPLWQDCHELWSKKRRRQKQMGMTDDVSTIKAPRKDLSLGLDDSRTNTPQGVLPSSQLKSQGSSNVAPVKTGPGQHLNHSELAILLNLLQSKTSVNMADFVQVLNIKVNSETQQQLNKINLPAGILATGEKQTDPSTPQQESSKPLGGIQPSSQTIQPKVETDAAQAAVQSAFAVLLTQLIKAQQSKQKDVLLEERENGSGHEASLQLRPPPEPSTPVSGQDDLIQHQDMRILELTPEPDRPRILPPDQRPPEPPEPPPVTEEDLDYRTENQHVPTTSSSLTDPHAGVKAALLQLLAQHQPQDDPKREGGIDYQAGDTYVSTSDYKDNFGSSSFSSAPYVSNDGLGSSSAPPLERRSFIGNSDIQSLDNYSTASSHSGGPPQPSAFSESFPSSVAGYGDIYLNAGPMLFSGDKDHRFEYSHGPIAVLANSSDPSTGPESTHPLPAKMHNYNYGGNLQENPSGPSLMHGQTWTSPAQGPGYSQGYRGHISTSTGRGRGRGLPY
Sequence of CDK1/Cyclin E (Homo sapiens) (P06493 whole entry, looked up): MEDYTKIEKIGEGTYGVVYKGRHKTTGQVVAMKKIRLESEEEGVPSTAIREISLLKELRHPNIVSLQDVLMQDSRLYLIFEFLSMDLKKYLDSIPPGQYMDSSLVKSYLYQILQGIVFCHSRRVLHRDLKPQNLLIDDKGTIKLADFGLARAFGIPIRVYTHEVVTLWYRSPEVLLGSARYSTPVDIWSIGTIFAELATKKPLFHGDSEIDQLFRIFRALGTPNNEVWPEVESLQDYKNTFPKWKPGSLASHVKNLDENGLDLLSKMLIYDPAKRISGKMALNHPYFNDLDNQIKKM
Sequence of CDK1/Cyclin E (Homo sapiens) (P24864 whole entry, looked up): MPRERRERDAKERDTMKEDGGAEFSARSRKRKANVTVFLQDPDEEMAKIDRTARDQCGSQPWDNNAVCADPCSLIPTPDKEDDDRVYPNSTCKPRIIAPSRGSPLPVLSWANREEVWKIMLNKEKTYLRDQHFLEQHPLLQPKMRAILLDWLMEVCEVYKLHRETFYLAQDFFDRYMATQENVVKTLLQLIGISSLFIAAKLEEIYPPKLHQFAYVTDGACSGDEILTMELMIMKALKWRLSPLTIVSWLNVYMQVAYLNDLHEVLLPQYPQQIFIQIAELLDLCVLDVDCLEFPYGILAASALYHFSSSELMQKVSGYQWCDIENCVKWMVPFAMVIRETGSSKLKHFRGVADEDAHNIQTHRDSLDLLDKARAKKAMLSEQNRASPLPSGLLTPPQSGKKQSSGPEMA
Sequence of Cyclin-dependent kinase 5/CDK5 activator 1 (Homo sapiens) (Q00535 whole entry): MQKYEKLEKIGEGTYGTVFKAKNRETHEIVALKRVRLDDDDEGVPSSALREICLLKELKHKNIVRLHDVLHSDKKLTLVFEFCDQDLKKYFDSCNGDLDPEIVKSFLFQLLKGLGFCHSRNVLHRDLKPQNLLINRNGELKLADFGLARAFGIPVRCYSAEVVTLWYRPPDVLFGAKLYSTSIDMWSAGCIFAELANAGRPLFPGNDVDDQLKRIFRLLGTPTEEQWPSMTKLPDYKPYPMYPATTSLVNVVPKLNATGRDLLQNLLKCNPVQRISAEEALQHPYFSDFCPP
Sequence of Cyclin-dependent kinase 5/CDK5 activator 1 (Homo sapiens) (Q15078 99-307 partner limits assumed): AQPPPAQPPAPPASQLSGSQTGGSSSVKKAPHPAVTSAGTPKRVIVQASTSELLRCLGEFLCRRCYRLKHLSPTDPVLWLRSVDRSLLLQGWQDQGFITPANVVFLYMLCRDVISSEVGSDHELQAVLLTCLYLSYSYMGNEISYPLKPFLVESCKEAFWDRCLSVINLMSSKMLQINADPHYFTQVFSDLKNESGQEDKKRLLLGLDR

## Cc1c(Br)c(Br)c2c3c1nc(N1CCNCC1)n3CCC2 [SEL-120 FREE BASE]
[1]
  inhibition: Active
[2]
  AUC(0-t) at 24 h: 1350 ng·h/mL
[3]
  Cmax: 12 ng/mL
[4]
  Ratio IC50: 0.1
[5]
  AUC/dose: 685 ng·h/mL
[6]
  Ratio IC50: 0.3

## FC(F)c1c(Br)c(Br)cc2c1nc(N1CCNCC1)n2C1CCOCC1
[7]
  inhibition: 58%
[8]
  inhibition: 94.8%
[9]
  Cmax: 190 ng/mL
[10]
  Activity: inactive
[11]
  Tmax: 2 h
[12]
  inhibition: 65%
[13]
  Vd: 7.05 L/kg
[14]
  IC50: 40 nM
[15]
  inhibition: 2.33%
[16]
  TGI: 86%
[17]
  inhibition: 63.4%
[18]
  AUC/dose: 2503 ng·h/mL
[19]
  Activity: Non-Toxic
[20]
  Tmax: 2 h
[21]
  Tmax: 4 h
[22]
  inhibition: 76.2%
[23]
  bioavailability: 89%
[24]
  Activity: Non-Toxic
[25]
  inhibition in vivo at 10 mg/kg: 36%
[26]
  inhibition: 19.4%
[27]
  half-life: 7 h
[28]
  AUC/dose: 796 ng·h/mL
[29]
  Cmax: 1100 ng/mL
[30]
  Ratio IC50: 7
[31]
  Activity: 14%
[32]
  inhibition: Active
[33]
  inhibition: 88.3%
[34]
  Cmax: 475 ng/mL
[35]
  inhibition: 74.4%
[36]
  inhibition: 57.4%
[37]
  inhibition: 84.9%
[38]
  Tmax: 1.5 h
[39]
  IC50: 2.1 nM

— ChEMBL document CHEMBL5506027, “Discovery of a Novel and Potent Cyclin-Dependent Kinase 8/19 (CDK8/19) Inhibitor for the Treatment of Cancer” (J Med Chem, 2024)
